The record followed here is patent US7989657B2, “Anthranilic acid derivatives” (Hoffmann-La Roche Inc., priority 2005, dated 2011).

pEC50: −log10 of the molar value.

One series addresses T1, HM74A (Homo sapiens, UniProt Q8TDS4).
T1 construct: expressed in transfected cells; host or cells: HEK-293, stably transfected with pcDNA3.1 vectors
Kind of series: Secondary fluorescent calcium indicator assay (FLIPR). The format is cell-based. To be noted: stable transfected HEK-293 cells expressing HM74A and chimeric G protein Gqi9; % stimulation of maximal nicotinic acid response (100 μM). The method, then:
Secondary Fluorescent Calcium Indicator Assay (FLIPR)
HEK-293 cells were grown in tissue culture medium (DMEM/Nut mix F12 Medium with Glutamax I (Invitrogen), containing 10% FBS) at 37° C. in a 5% CO2 atmosphere. These cells were cultured in 6-well dishes at 3×10^5 cells/well and double transfected with DNA vectors (pcDNA3.1, Invitrogen) expressing either HM74A or HM74 and the chimeric G protein Gqi9. Two days after transfection the wells were combined and plated in 150 cm^2 flasks, in the presence of 50 μg/ml Hygromycin (Invitrogen) and 500 μg/ml Geneticin (Gibco). Fourteen days after plating, colonies were picked, expanded and analyzed for expression using a functional assay (FLIPR). Stable transfected HEK-293 cells expressing either HM74A or HM74 and the chimeric G protein Gqi9 were plated at 50,000 cells/well in black 96-well plates with clear bottom (Costar) and cultured to confluency overnight in growth media (DMEM/Nut mix F12 Medium with Glutamax I (Invitrogen), containing 10% FBS) at 37° C. in a humidified cell incubator containing 5% CO2. Growth media was aspirated and replaced with 100 μl of 1×FLIPR Calcium Assay Dye (Molecular Devices) in Hank's balanced salt solution (HBSS) containing 10 mM HEPES, and […] probenecid (Sigma), for 1 hour at 37° C. Cell plates were transferred to a FLIPR unit (Molecular Devices), and 50 μl of 3× compound dilution were added. Fluorescence emissions were measured and the effects of compounds were expressed as % stimulation of maximal nicotinic acid response (100 μM). Sigmoidal curves were fitted using the XLfit3 program (ID Business Solutions Ltd. UK) and EC50 values determined.

T1 sequence (Q8TDS4 whole entry): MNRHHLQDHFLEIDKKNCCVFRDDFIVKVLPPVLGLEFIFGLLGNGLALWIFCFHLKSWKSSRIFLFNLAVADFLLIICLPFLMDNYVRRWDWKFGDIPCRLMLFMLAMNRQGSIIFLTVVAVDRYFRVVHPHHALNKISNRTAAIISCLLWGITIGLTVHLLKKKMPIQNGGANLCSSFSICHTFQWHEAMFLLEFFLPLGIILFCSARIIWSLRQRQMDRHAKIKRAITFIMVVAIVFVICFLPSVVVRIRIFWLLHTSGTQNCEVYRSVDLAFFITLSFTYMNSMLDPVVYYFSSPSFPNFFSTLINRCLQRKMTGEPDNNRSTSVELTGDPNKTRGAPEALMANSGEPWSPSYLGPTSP

As for “2-[4-(4-Fluoro-phenoxy)-benzoylamino]-benzoic acid [Example 2]”, the pEC50 (in general, the EC50 on a negative log10 scale, so that one unit is a factor of ten) at HM74A is 5.96. As for `O=C(Nc1ccccc1C(=O)O)c1ccc(Oc2cccc(Cl)c2)cc1` [Example 17, 2-[4-(3-Chloro-phenoxy)-benzoylamino]-benzoic acid], the negative logarithm of the EC50 (pEC50) on HM74A is 6.28. Turning to `O=C(Nc1ccccc1C(=O)O)c1ccc(Oc2cc(F)ccc2F)cc1` [Example 29, 2-[4-(2,5-Difluoro-phenoxy)-benzoylamino]-benzoic acid], the negative logarithm of the EC50 (pEC50) on HM74A is 7.00. `Cc1cc(C(=O)Nc2ccccc2C(=O)O)ccc1Oc1ccccc1` [Example 30, 2-(3-Methyl-4-phenoxy-benzoylamino)-benzoic acid]: the melting point (in general, the temperature, or range, at which the solid turns liquid) was 123 °C.
